# Measurements reported in patent EP0200406A2, “Novel amino acid derivatives” (Kissei Pharmaceutical Co Ltd, priority 1985, dated 1986).
# Key:
# renin [1] = molecular target: T1, renin (Homo sapiens, UniProt P00797); test: Human renin-sheep renin substrate reaction system in vitro; format: biochemical; settings: purified human renin, semipurified sheep renin substrate, pH 7.4, 15 minutes at 37°C, angiotensin I by radioimmunoassay; read-out: IC50 molar concentration
# T1 sequence (P00797 67-406): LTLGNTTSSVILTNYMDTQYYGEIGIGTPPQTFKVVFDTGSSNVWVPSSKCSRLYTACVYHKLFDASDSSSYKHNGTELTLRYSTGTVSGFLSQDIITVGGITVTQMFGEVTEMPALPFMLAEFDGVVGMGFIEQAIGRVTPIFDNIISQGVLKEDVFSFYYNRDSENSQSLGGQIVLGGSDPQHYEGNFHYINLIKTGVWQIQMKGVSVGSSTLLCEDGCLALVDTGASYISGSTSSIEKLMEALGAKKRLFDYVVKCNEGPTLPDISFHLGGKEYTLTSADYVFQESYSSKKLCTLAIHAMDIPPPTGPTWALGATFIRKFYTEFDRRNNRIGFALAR
# Protocol: To a mixture containing 200 µl of a 125 mM pyrophosphate buffer (pH 7.4), 25 µl of a 20 mM aqueous solution of L-phenylalanyl-L-alanyl-L-prolin as an angiotensin cnverting enzyme inhibitor, 50 µ01 of semipurified sheep renin substrate (2000 ng angiotensin I/ml), 50 µl of dimethyl sulfoxide solution of an amino acid compound of the present invention and 150 µl of deionized water was added 25 µl of purified human renin (20-30 ng angiotensin I/ml/hr. The mixture was incubated for 15 minutes on a water bath at 37°C, and the reaction mixture was allowed to stand for 5 minutes on a water bath at 100°C to stop the reaction. After cooling, 200 µl of the solution were taken up and the amount of angiotensin I produced by the addition of renin was determined by radiommunoassay. The inhibitory effect was calculated by the following equation.
# As a control, the same procedure as above was carried out by using 50 µl of dimethyl sulfoxide alone in place of the 50 µl of dimethyl sulfoxide solution containing an amino acid compound of the present invention.
# renin [2] = molecular target: T1, renin; test: Renin inhibitory effect in a human high renin plasma; format: biochemical; set-up: from tissue; host or cells: human high renin plasma; settings: pH 7, 60 minutes at 37°C, angiotensin I by radioimmunoassay, read-out: IC50 (molar concentration)
# Protocol: A mixture of 350 µl of a 0.5 M phosphate buffer containing 14 mM EDTA 2Na and a 0.3% neomycin sulfate, which was adjusted to the pH of 7, 50 µl of a 20 mM an aqueous solution of L-phenylalanyl-L-alanyl-L-prolin as an angiotensin converting enzyme inhibitor and 100 µl of dimethyl sulfoxide solution containing an amino acid compound of the present invention was added to 500 µl of human high renin plasma, and 200 µl of the mixture was incubated at 4°C in an ice bath, and remaining mixture (800 µl) was incubated for 60 minutes at 37°C in a water bath. A 200 µl sample was withdrawn from the incubated mixture, chilled immediately in an ice bath, and the amount (A) of angiotensin I produced was determined by radioimmunoassay.
# Also, the amount (B) of angiotensin I produced in the incubated mixture at 4°C in an ice bath was determined by radioimmunoassy.
# As a control, the same procedure as above was carried out by using 100 µl of dimethyl sulfoxide alone in place of the 100µl of dimethyl sulfoxide solution containing an amino acid compound of the present invention.
# The renin inhibitory effect in human plasa was calculated by taking the amount of angiotensin I - (A) from the amount of angiotensin I (B). The inhibotory effect was calculated by the following equation. [formula]
# common marmoset = test: Hypotensive effect in marmoset; format: in vivo; settings: orally 30 mg/kg, conscious male marmosets in high renin state (furosemide), Control 103.5
# Protocol: The experiment was carrried out by using common marmoset as described in K.G. Hofbauer et al., Clinical and Experimental hypertension, Vol. A5, Nos. 7 & 8 (1983), pages 1237-1247.
# Furosemide was orally administered three times to common marmoset at 15 mg per kilogram per day every other day to create a high renin state. Blood pressure of consious marmoset was measured 2 days after the last administration of furosemide.
# Three consious male marmosets marmosets weighing 305-345 g were fixed. Mean blood pressure at tail artery was recorded on pretismograph instrument. The amino acid compound, of the present invention isopropyl (2RS. 3S)-3-{N-[2-(1-naphthylmethyl)-3-(morpholinocarbonylpropionyl]-L-histidyl}amino-2-hydroxy-5-methylhexanoate and administered orally at 30 mg/kg by using a catheter. The results obtained are shown below.
SMILES,IC50 (renin [1]),IC50 (renin [2]),further results
"CNC(=O)C(O)[C@H](CC(C)C)NC(=O)[C@H](Cc1c[nH]cn1)NC(=O)C(CC(=O)N1CCCCC1)Cc1cccc2ccccc12 (mixture of isomers) [Example 7, (2RS, 3S)-3-{N-[2-(1-Naphthylmethyl)-3-(piperidinocarbonyl)propionyl]-L-histidyl}amino-2-hydroxy-5-methylhexanoylmethylamide]",690 nM,5200 nM,
CC(C)C[C@H](NC(=O)[C@H](Cc1cnc[nH]1)NC(=O)C(CC(=O)N1CCOCC1)Cc1cccc2ccccc12)C(O)C(=O)OC(C)C (stereo partly drawn) [Example 1],,,Mean blood pressure (common marmoset; 0.5 hours after administration): 88.7 mmHg; Mean blood pressure (common marmoset; 1 hour after administration): 85.6 mmHg; Mean blood pressure (common marmoset; 2 hours after administration): 87.2 mmHg; Mean blood pressure (common marmoset; 3 hours after administration): 89.3 mmHg; Mean blood pressure (common marmoset; 5 hours after administration): 92.4 mmHg; Mean blood pressure (common marmoset; 7 hours after administration): 92.3 mmHg; Mean blood pressure (common marmoset; 9 hours after administration): 92.8 mmHg; Mean blood pressure (common marmoset; 24 hours after administration): 101.9 mmHg
"COC(=O)C[C@H](O)[C@H](CC(C)C)NC(=O)[C@H](Cc1c[nH]cn1)NC(=O)C(CC(=O)N1CCOCC1)Cc1cccc2ccccc12 (stereo partly drawn) [Example 11, Methyl N-[2-(1-naphthylmethyl)-3-(morpholinocarbonyl)propionyl]-L-histidyistatinate]",210 nM,,
"CC(C)CCNC(=O)C[C@H](O)[C@H](CC(C)C)NC(=O)[C@H](Cc1c[nH]cn1)NC(=O)C(CC(=O)N1CCOCC1)Cc1cccc2ccccc12 (stereo partly drawn) [Example 13, N-[2-(1-Naphthyfmethyl)-3-(morpholinocarbouyl)-propionyl]-L-histidyl-statylisoamylamide]",36 nM,,

# Further compounds by falling IC50 (renin [1]), results first:
IC50 (renin [1]),IC50 (renin [2]),SMILES,further results
630 nM,,"CCNC(=O)CC(Cc1cccc2ccccc12)C(=O)N[C@@H](Cc1c[nH]cn1)C(=O)N[C@@H](CC(C)C)C(O)C(=O)OC (mixture of isomers) [Example 10, Methyl (2RS, 3S)-3-{N-[2-(1-naphthylmethyl)-3-(ethylcarbamoyl)propionyl]-L-histidyl}amino-2-hydroxy-5-methylhexanoate]",
340 nM,,"CNC(=O)C(O)[C@H](CC(C)C)NC(=O)[C@H](Cc1c[nH]cn1)NC(=O)C(CC(=O)N1CCOCC1)Cc1cccc2ccccc12 (mixture of isomers) [Example 3, (2RS, 3S)-3-{N-[2-(1-Naphthylmethyl)-3-(morpholinocarbonyl)propionyl]-L-histidyl}amino-2-hydroxy-5-methylhexanoylmethylamide]",
69 nM,62 nM,"COC(=O)C(O)[C@H](CC(C)C)NC(=O)[C@H](Cc1c[nH]cn1)NC(=O)C(CC(=O)N1CCCC1)Cc1cccc2ccccc12 (stereo partly drawn) [Example 8, Methyl (2RS, 3S)-3-{N-[2-(1-naphthylmethyl)-3-(pyrroiidinocarbonyl)propionyl]-L-histidyl}amino-2-hydroxy-5-methylhexanoate]",
28 nM,88 nM,"CC(C)C[C@H](NC(=O)[C@H](Cc1c[nH]cn1)NC(=O)C(CC(=O)N1CCCCC1)Cc1cccc2ccccc12)C(O)C(=O)OC(C)C (stereo partly drawn) [Example 5, lsopropyl (2RS, 3S)-3-{N-[2-(1-Naphthytmethyl)-3-(piperidinocarbonyl)propionyl}-t-hisfidyl)amino-2-hydroxy-5-methylhexanoate]",
